Reference: ChEMBL document CHEMBL1148802, “Discovery and synthesis of HIV integrase inhibitors: development of potent and orally bioavailable N-methyl pyrimidones” (J Med Chem, 2007)
pIC50: −log10 of the molar value.

Experiments:
[1] = Plasma half life in iv dosed Sprague-Dawley rat; type: ADME, organism-based
[2] = test system: Rattus norvegicus; assay: (§1) AUC in Sprague-Dawley rat at 3 mg/kg, po; type: ADME, organism-based, Plasma; parameters: dose 3 mg/kg, route oral; details: in vivo
[3] = test system: Human immunodeficiency virus 1; assay: Antiviral activity against HIV1 3b in MT4 cells assessed as decrease in […] p24 core antigen in presence of normal human serum; type: functional; details: for IC95: Human immunodeficiency virus 1, 3b, MT4, read-out: CIC95
[4] = Plasma clearance in Beagle dog; type: ADME, organism-based, Canis lupus familiaris
[5] = test system: Human immunodeficiency virus 1; assay: Antiviral activity against HIV13b in MT4 cells assessed as decrease in HIV1 p24 core antigen in presence of fetal bovine serum; type: functional, 3b; details: for IC95: Human immunodeficiency virus 1, 3b, MT4, read-out: CIC95
[6] = Plasma half life in iv dosed Beagle dog; type: ADME, organism-based, Canis lupus familiaris
[7] = AUC in Beagle dog at 2 mg/kg, po; type: ADME, organism-based, Canis lupus familiaris; parameters: dose 2 mg/kg, route oral; details: plasma
[8] = Plasma clearance in Sprague-Dawley rat; type: ADME, organism-based
[9] = Oral bioavailability in Sprague-Dawley rat; type: ADME, organism-based; details: in vivo
[10] = Oral bioavailability in Beagle dog; type: ADME, organism-based, Canis lupus familiaris; details: in vivo
[11] = as §1; type: ADME, organism-based, Plasma; parameters: dose 3 mg/kg, route oral; details: Sprague-Dawley, plasma
[12] = AUC in Beagle dog at 10 mg/kg, po; type: ADME, organism-based, Canis lupus familiaris; parameters: dose 10 mg/kg, route oral; details: plasma
[13] = Plasma half life in Beagle dog at 4 mg/kg, iv and 10 mg/kg, po; type: ADME, organism-based, Canis lupus familiaris
[14] = target: Cytochrome P450 2C19 (Homo sapiens, UniProt P33261); assay: Inhibition of human CYP2C19 at 100 uM; type: ADME
[15] = AUC in rhesus monkey at 1 mg/kg, po; type: ADME, organism-based, Macaca mulatta; parameters: dose 1 mg/kg, route oral; details: plasma
[16] = Plasma half life in Sprague-Dawley rat at 3 mg/kg, iv and 3 mg/kg, po; type: ADME, organism-based
[17] = Solubility at pH 7.4; type: physicochemical; details: buffer
[18] = Plasma clearance in Sprague-Dawley rat at 3mg/kg, iv and 3mg/kg, po; type: ADME, organism-based
[19] = Plasma clearance in rhesus monkey at 1 mg/kg, po and 1 mg/kg, iv; type: ADME, organism-based, Macaca mulatta
[20] = Oral bioavailability in Sprague-Dawley rat at 3 mg/kg; type: ADME, organism-based; details: in vivo
[21] = Distribution coefficient, log D of the compound; type: physicochemical; details: octanol/water
[22] = Oral bioavailability in rhesus monkey at 1 mg/kg; type: ADME, organism-based, Macaca mulatta; details: in vivo
[23] = Cmax in Sprague-Dawley rat at 3 mg/kg, iv and 3 mg/kg, po; type: ADME, organism-based; details: in vivo
[24] = Oral bioavailability in Beagle dog at 10 mg/kg; type: ADME, organism-based, Canis lupus familiaris; details: in vivo
[25] = target: Cytochrome P450 3A4 (Homo sapiens, UniProt P08684); assay: Inhibition of human CYP3A4 at 100 uM; type: ADME
[26] = target: Cytochrome P450 2D6 (Homo sapiens, UniProt P10635); assay: Inhibition of human CYP2D6 at 100 uM; type: ADME
[27] = Cmax in Beagle dog at 4 mg/kg, iv and 10 mg/kg, po; type: ADME, organism-based, Canis lupus familiaris; details: in vivo
[28] = target: T1, Cytochrome P450 1A2 (Homo sapiens, UniProt P05177); assay: Inhibition of human CYP1A2 at 100 uM; type: ADME
T1 sequence (P05177 whole entry): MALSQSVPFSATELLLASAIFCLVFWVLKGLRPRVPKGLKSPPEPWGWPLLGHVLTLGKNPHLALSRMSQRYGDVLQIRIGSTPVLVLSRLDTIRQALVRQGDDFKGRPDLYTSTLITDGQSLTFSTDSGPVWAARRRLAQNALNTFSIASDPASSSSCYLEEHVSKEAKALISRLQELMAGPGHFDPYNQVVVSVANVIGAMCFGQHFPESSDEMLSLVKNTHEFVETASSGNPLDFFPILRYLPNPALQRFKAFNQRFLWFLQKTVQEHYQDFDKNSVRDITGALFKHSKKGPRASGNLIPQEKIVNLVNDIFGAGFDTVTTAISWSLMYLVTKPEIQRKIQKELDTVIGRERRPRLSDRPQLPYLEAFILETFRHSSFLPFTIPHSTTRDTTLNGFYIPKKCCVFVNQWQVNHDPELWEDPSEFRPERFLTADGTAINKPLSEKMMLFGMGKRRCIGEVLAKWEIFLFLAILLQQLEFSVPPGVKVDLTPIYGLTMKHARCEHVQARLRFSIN

[29] = Plasma half life in rhesus monkey at 1 mg/kg, po and 1 mg/kg, iv; type: ADME, organism-based, Macaca mulatta
[30] = Plasma clearance in Beagle dog at 4 mg/kg, iv and 10 mg/kg, po; type: ADME, organism-based, Canis lupus familiaris
[31] = target: Human immunodeficiency virus type 1 integrase (Human immunodeficiency virus 1, UniProt Q7ZJM1); assay: Inhibition of HIV integrase activity by HIV strand transfer assay
[32] = species on record: Homo sapiens; assay: Protein binding in human plasma; details: read-out: PPB (converted)
[33] = Protein binding in Sprague-Dawley rat plasma; type: ADME, cell-free; details: read-out: PPB (converted)
[34] = AUC in Sprague-Dawley rat at 2.4 mg/kg, po; type: ADME, organism-based; parameters: dose 2.4 mg/kg, route oral; details: plasma
[35] = Protein binding in Beagle dog plasma; type: ADME, organism-based, Canis lupus familiaris; details: read-out: PPB (converted)
[36] = AUC in Beagle dog at 1.5 mg/kg, po; type: ADME, organism-based, Canis lupus familiaris; parameters: dose 1.5 mg/kg, route oral; details: plasma
[37] = AUC in Sprague-Dawley rat at 2.3 mg/kg, po; type: ADME, organism-based; parameters: dose 2.3 mg/kg, route oral; details: plasma
[38] = AUC in Beagle dog at 0.8 mg/kg, po; type: ADME, organism-based, Canis lupus familiaris; parameters: dose 0.8 mg/kg, route oral; details: plasma
[39] = AUC in Beagle dog at 1 mg/kg, po; type: ADME, organism-based, Canis lupus familiaris; parameters: dose 1 mg/kg, route oral; details: plasma

SMILES: CN1CCOCC1c1nc(C(=O)NCc2ccc(F)cc2)c(O)c(=O)n1C.Cl (single isomer, unassigned; (-))
- half-life [1]: 1 h
- AUC [2]: 6 µM·h
- CIC95 [3]: 190 µM
- clearance [4]: 2.6 mL/min/kg
- CIC95 [5]: 90 µM
- half-life [6]: 1.9 h
- AUC [7]: 29 µM·h
- clearance [8]: 18 mL/min/kg
- bioavailability [9]: 84%
- bioavailability [10]: 87%

SMILES: CN1CCOCC1c1nc(C(=O)NCc2ccc(F)cc2)c(O)c(=O)n1C.Cl (single isomer, unassigned; (+))
- AUC [11]: 8 µM·h
- AUC [12]: 136 µM·h
- half-life [13]: 7.2 h
- Activity [14]: Not Active
- CIC95 [3]: 65 µM
- AUC [15]: 2.2 µM·h
- half-life [16]: 1.1 h
- solubility [17]: 5800 µg/mL
- clearance [18]: 9 mL/min/kg
- CIC95 [5]: 40 µM
- clearance [19]: 14 mL/min/kg
- bioavailability [20]: 56%
- Log D [21]: 0.47
- bioavailability [22]: 73%
- Cmax [23]: 5.6 µM
- bioavailability [24]: 69%
- Activity [25]: Not Active
- Activity [26]: Not Active
- Cmax [27]: 35 µM
- Activity [28]: Not Active
- half-life [29]: 2 h
- clearance [30]: 2.2 mL/min/kg

SMILES: CN1CCN(C)C(c2nc(C(=O)NCc3ccc(F)cc3)c(O)c(=O)n2C)C1 (stereo not drawn)
- half-life [1]: 0.7 h
- AUC [11]: 5.1 µM·h
- IC95 [3]: 190 nM
- IC95 [5]: 250 nM
- pIC50 [31]: 7.00
- fraction unbound [32]: 0.28
- clearance [8]: 21 mL/min/kg
- bioavailability [9]: 62%

SMILES: CN1C[C@H](OCc2ccccc2)C[C@H]1c1nc(C(=O)NCc2ccc(F)cc2)c(O)c(=O)n1C
- half-life [1]: 2.3 h
- IC95 [3]: 310 nM
- IC95 [5]: < 80 nM
- fraction unbound [33]: 0.07
- pIC50 [31]: 6.89
- fraction unbound [32]: 0.05
- logD [21]: 2.2
- clearance [8]: 28 mL/min/kg
- bioavailability [9]: 75%
- AUC [34]: 2.3 µM·h

SMILES: CN1C[C@@H](F)C[C@H]1c1nc(C(=O)NCc2ccc(F)cc2)c(O)c(=O)n1C
- half-life [1]: 1.7 h
- AUC [11]: 4.5 µM·h
- IC95 [3]: 130 nM
- IC95 [5]: 60 nM
- fraction unbound [33]: 0.08
- pIC50 [31]: 7.70
- clearance [8]: 21 mL/min/kg
- bioavailability [9]: 94%

SMILES: CN1CCOCC1c1nc(C(=O)NCc2ccc(F)cc2)c(O)c(=O)n1C (stereo not drawn)
- half-life [1]: 1.6 h
- CIC95 [3]: 0.1 µM
- fraction unbound [35]: 0.53
- AUC [15]: 1.7 µM·h
- clearance [4]: 3 mL/min/kg
- CIC95 [5]: 0.06 µM
- half-life [6]: 10 h
- AUC [36]: 22 µM·h
- fraction unbound [33]: 0.22
- logD [21]: 0.59
- clearance [8]: 22 mL/min/kg
- AUC [37]: 4.3 µM·h
- bioavailability [9]: 92%
- bioavailability [10]: 100%
- AUC [38]: 11 µM·h

SMILES: CN1C[C@H](O)C[C@H]1c1nc(C(=O)NCc2ccc(F)cc2)c(O)c(=O)n1C
- half-life [1]: 1.8 h
- IC95 [3]: 630 nM
- IC95 [5]: 630 nM
- fraction unbound [33]: 0.22
- pIC50 [31]: 7.00
- fraction unbound [32]: 0.28
- clearance [8]: 21 mL/min/kg
- AUC [37]: 0.1 µM·h
- bioavailability [9]: 2%

SMILES: CC(=O)N1CCN(C)C(c2nc(C(=O)NCc3ccc(F)cc3)c(O)c(=O)n2C)C1 (stereo not drawn)
- half-life [1]: 0.9 h
- AUC [11]: 0.8 µM·h
- IC95 [3]: 300 nM
- IC95 [5]: 230 nM
- pIC50 [31]: 7.49
- fraction unbound [32]: 0.3
- logD [21]: 0.09
- clearance [8]: 42 mL/min/kg
- bioavailability [9]: 17%

SMILES: CN1CC(F)(F)C[C@H]1c1nc(C(=O)NCc2ccc(F)cc2)c(O)c(=O)n1C
- half-life [1]: 0.6 h
- AUC [11]: 11.8 µM·h
- IC95 [3]: 170 nM
- fraction unbound [35]: 0.15
- clearance [4]: 5 mL/min/kg
- IC95 [5]: 30 nM
- half-life [6]: 6 h
- fraction unbound [33]: 0.06
- pIC50 [31]: 7.52
- fraction unbound [32]: 0.12
- clearance [8]: 11 mL/min/kg
- bioavailability [9]: 93%
- AUC [39]: 9.9 µM·h
- bioavailability [10]: 100%

SMILES: CN1C[C@H](F)C[C@H]1c1nc(C(=O)NCc2ccc(F)cc2)c(O)c(=O)n1C
- half-life [1]: 2 h
- AUC [11]: 12.5 µM·h
- IC95 [3]: 250 nM
- IC95 [5]: 130 nM
- fraction unbound [33]: 0.03
- pIC50 [31]: 7.70
- logD [21]: 0.66
- clearance [8]: 12 mL/min/kg
- bioavailability [9]: 100%

SMILES: CO[C@@H]1C[C@@H](c2nc(C(=O)NCc3ccc(F)cc3)c(O)c(=O)n2C)N(C)C1
- half-life [1]: 1.5 h
- AUC [11]: 5.2 µM·h
- IC95 [3]: 170 nM
- IC95 [5]: 150 nM
- fraction unbound [33]: 0.11
- pIC50 [31]: 6.74
- fraction unbound [32]: 0.25
- clearance [8]: 19 mL/min/kg
- bioavailability [9]: 79%
